Data: PubChem BioAssay AID1963968 (Molecular Pharmacology Branch, DTP, NCI, 2024)

System: 945468-187-T-J3-PDC spheroids with HUVEC/MSC, viability
Experiment: Anticancer human tumor 945468-187-T-J3-PDC patient-derived rectal carcinoma cell line growth inhibition [PI3K]
Details: for IC50: curve of first compound; for viability, T/C: stronger effect = lower value
Procedure, shortened: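 Tumor cells were combined with HUVEC and MSCs into spheroids, then dosed with PI3K-inhibitor combinations over half-log ranges capped near clinical Cmax or 10 microM.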

[1] = second compound 0.00316 µM, first compound 0.0316 µM
[2] = second compound 0.00316 µM, first compound 0.1 µM
[3] = second compound 0.00316 µM, first compound 0.316 µM
[4] = second compound 0.00316 µM, first compound 1 µM
[5] = second compound 0.00316 µM, first compound 3.16 µM
[6] = second compound 0.00316 µM, first compound 10 µM
[7] = second compound 0.01 µM, first compound 0.0316 µM
[8] = second compound 0.01 µM, first compound 0.1 µM
[9] = second compound 0.01 µM, first compound 0.316 µM
[10] = second compound 0.01 µM, first compound 1 µM
[11] = second compound 0.01 µM, first compound 3.16 µM
[12] = second compound 0.01 µM, first compound 10 µM
[13] = second compound 0.0316 µM, first compound 0.0316 µM
[14] = second compound 0.0316 µM, first compound 0.1 µM
[15] = second compound 0.0316 µM, first compound 0.316 µM
[16] = second compound 0.0316 µM, first compound 1 µM
[17] = second compound 0.0316 µM, first compound 3.16 µM
[18] = second compound 0.0316 µM, first compound 10 µM
[19] = second compound 0.1 µM, first compound 0.0316 µM
[20] = second compound 0.1 µM, first compound 0.1 µM
[21] = second compound 0.1 µM, first compound 0.316 µM
[22] = second compound 0.1 µM, first compound 1 µM
[23] = second compound 0.1 µM, first compound 3.16 µM
[24] = second compound 0.1 µM, first compound 10 µM
[25] = second compound 0.316 µM, first compound 0.0316 µM
[26] = second compound 0.316 µM, first compound 0.1 µM
[27] = second compound 0.316 µM, first compound 0.316 µM
[28] = second compound 0.316 µM, first compound 1 µM
[29] = second compound 0.316 µM, first compound 3.16 µM
[30] = second compound 0.316 µM, first compound 10 µM
[31] = second compound 1 µM, first compound 0.0316 µM
[32] = second compound 1 µM, first compound 0.1 µM
[33] = second compound 1 µM, first compound 0.316 µM
[34] = second compound 1 µM, first compound 1 µM
[35] = second compound 1 µM, first compound 3.16 µM
[36] = second compound 1 µM, first compound 10 µM
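Note: spheroids exposed to agents for 7 days before viability read.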
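Throughout, for viability, T/C: 100% = DMSO vehicle control viability.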

C#Cc1c(F)ccc2cc(O)cc(-c3ncc4c(N5CC6CCC(C5)N6)nc(OCC56CCCN5CC(F)C6)nc4c3F)c12 (centres undefined) + CC(Nc1ccc2c(c1)OCCn1cc(N3C(=O)OCC3C(F)F)nc1-2)C(N)=O
IC50 (second compound 0.00316 µM): > 10 µM
IC50 (second compound 0.01 µM): > 10 µM
IC50 (second compound 0.0316 µM): > 10 µM
IC50 (second compound 0.1 µM): > 10 µM
IC50 (second compound 0.316 µM): > 10 µM
IC50 (second compound 1 µM): 2.76 µM
viability, T/C [1]: 94%
viability, T/C [2]: 103%
viability, T/C [3]: 94%
viability, T/C [4]: 114%
viability, T/C [5]: 120%
viability, T/C [6]: 113%
viability, T/C [7]: 94.1%
viability, T/C [8]: 100%
viability, T/C [9]: 94.6%
viability, T/C [10]: 115%
viability, T/C [11]: 138%
viability, T/C [12]: 102%
viability, T/C [13]: 100%
viability, T/C [14]: 104%
viability, T/C [15]: 99.8%
viability, T/C [16]: 118%
viability, T/C [17]: 115%
viability, T/C [18]: 105%
viability, T/C [19]: 122%
viability, T/C [20]: 112%
viability, T/C [21]: 97%
viability, T/C [22]: 117%
viability, T/C [23]: 115%
viability, T/C [24]: 103%
viability, T/C [25]: 111%
viability, T/C [26]: 99.6%
viability, T/C [27]: 91.3%
viability, T/C [28]: 106%
viability, T/C [29]: 91%
viability, T/C [30]: 56.1%
viability, T/C [31]: 76.2%
viability, T/C [32]: 73.2%
viability, T/C [33]: 64.9%
viability, T/C [34]: 70.2%
viability, T/C [35]: 47.3%
viability, T/C [36]: 29%

CC(Cn1ccc(-c2ccc(C#N)c(Cl)c2)n1)NC(=O)c1cc(C(C)O)[nH]n1 (centres undefined) + CC(Nc1ccc2c(c1)OCCn1cc(N3C(=O)OCC3C(F)F)nc1-2)C(N)=O
IC50 (second compound 0.00316 µM): > 10 µM
IC50 (second compound 0.01 µM): > 10 µM
IC50 (second compound 0.0316 µM): > 10 µM
IC50 (second compound 0.1 µM): > 10 µM
IC50 (second compound 0.316 µM): > 10 µM
IC50 (second compound 1 µM): > 10 µM
viability, T/C [1]: 95.2%
viability, T/C [2]: 99.4%
viability, T/C [3]: 106%
viability, T/C [4]: 112%
viability, T/C [5]: 114%
viability, T/C [6]: 99.6%
viability, T/C [7]: 111%
viability, T/C [8]: 104%
viability, T/C [9]: 93.6%
viability, T/C [10]: 111%
viability, T/C [11]: 114%
viability, T/C [12]: 106%
viability, T/C [13]: 115%
viability, T/C [14]: 107%
viability, T/C [15]: 101%
viability, T/C [16]: 111%
viability, T/C [17]: 109%
viability, T/C [18]: 107%
viability, T/C [19]: 109%
viability, T/C [20]: 115%
viability, T/C [21]: 115%
viability, T/C [22]: 114%
viability, T/C [23]: 107%
viability, T/C [24]: 99.1%
viability, T/C [25]: 107%
viability, T/C [26]: 107%
viability, T/C [27]: 96.7%
viability, T/C [28]: 115%
viability, T/C [29]: 108%
viability, T/C [30]: 102%
viability, T/C [31]: 80.5%
viability, T/C [32]: 68.6%
viability, T/C [33]: 75.4%
viability, T/C [34]: 71.2%
viability, T/C [35]: 74.8%
viability, T/C [36]: 71.1%
